# Data: PMC4638363, “Linear Interaction Energy Based Prediction of Cytochrome P450 1A2 Binding Affinities with Reliability Estimation” (PLoS ONE, 2015)
# Read-outs that look alike come from different tables or passages of the source.
# Legend:
# [1] = tested on: CYP 1A2; settings: Table A, Source 1; ref Bayer HealthCare databases for CYP inhibition (eTOX); cited from earlier work
# [2] = biological target: T1, human CYP 1A2 (Homo sapiens, UniProt P05177)
# T1 sequence (P05177 1-516): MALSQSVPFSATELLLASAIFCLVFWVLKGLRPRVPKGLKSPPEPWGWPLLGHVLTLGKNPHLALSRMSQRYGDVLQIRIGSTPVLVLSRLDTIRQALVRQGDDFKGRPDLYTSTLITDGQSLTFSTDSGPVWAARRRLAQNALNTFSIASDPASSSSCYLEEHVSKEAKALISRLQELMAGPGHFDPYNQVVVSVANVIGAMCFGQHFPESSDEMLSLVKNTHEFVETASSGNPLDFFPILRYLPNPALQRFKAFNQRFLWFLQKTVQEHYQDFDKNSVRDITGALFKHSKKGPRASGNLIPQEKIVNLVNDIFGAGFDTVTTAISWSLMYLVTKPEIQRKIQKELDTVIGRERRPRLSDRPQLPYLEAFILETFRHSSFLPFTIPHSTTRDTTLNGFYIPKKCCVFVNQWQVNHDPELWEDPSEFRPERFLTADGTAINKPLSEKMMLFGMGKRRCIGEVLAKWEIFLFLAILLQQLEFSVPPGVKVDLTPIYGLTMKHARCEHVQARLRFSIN
# [3] = tested on: recombinant CYP 1A2
# [4] = biological target: T1, human CYP 1A2; experiment: in-house CYP 1A2 inhibition assay with 7-methoxyresorufin as substrate (resorufin fluorescence); settings: for ΔΔG bind: difference in ΔG bind between literature and in-house determined values; for ΔG bind (inhouse): from in-house IC50 via Cheng-Prusoff and RTln(Ki)
# [5] = tested on: recombinant CYP 1A2; settings: cited from earlier work
# [6] = tested on: recombinant CYP 1A2; settings: for ΔGbind^Obs: from literature IC50, Source 3
# [7] = tested on: CYP 1A2; settings: literature; cited from earlier work
# [8] = read-out: IC 50 (lit), Source 3, recombinant CYP 1A2, 7-ethoxyresorufin O-dealkylation
# [9] = Table A, Source 3, ref Korhonen et al., J. Med. Chem. 2005
smiles,measurement,setting,value
"N[C@@H]1C[C@H]1c1ccccc1 (racemic) [Compound 15, Tranylcypromine]",IC50,[1],10.4 µM
"Oc1cccc2ccccc12 [Compound 9, 1-naphthol]","Residual (ΔGbind^Obs–ΔG bind ^Calc), error in prediction",[2],-2.77 kcal/mol
same,ΔG bind (lit),[3]; human,-7.96 ± 0.14 kcal/mol
same,ΔGbind^Obs,[3]; human,-7.96 kcal/mol
same,IC50,[4],2 ± 0.7 µM
same,ΔΔG bind,[4],0.287 kcal/mol
same,ΔG bind (inhouse),[4],-8.25 ± 0.22 kcal/mol
same,IC50,[5]; [8],3.2 ± 0.8 µM
"COc1ccc(C=O)cc1 [Compound 11, p-methoxybenzaldehyde]","Residual (ΔGbind^Obs–ΔG bind ^Calc), error in prediction",[2],-0.43 kcal/mol
same,ΔG bind (lit),[3],-5.31 ± 0.19 kcal/mol
same,ΔGbind^Obs,[3],-5.31 kcal/mol
same,ΔΔG bind,[4],-0.239 kcal/mol
same,ΔG bind (inhouse),[4],-5.07 ± 0.048 kcal/mol
same,IC50,[4]; read-out: IC 50 (inhouse),410 ± 32 µM
same,IC50,[5]; [8],270 ± 85 µM
"Cc1ccc(CCN)cc1 [Compound 12, p-tolylethylamine]","Residual (ΔGbind^Obs–ΔG bind ^Calc), error in prediction",[2]; test set,-1.53 kcal/mol
same,ΔΔG bind,[4],-1.27 kcal/mol
same,ΔG bind (inhouse),[4],-5.81 ± 0.17 kcal/mol
same,IC50,"[4]; read-out: IC 50 (inhouse), 7-methoxyresorufin at Km 2.5 μM, triplicate",120 ± 33 µM
same,IC50,[5]; [8],14 ± 2.5 µM
same,ΔG bind (lit),"[6]; from literature IC50, Source 3 (Ref. 25)",-7.07 ± 0.12 kcal/mol
same,ΔGbind^Obs,[6]; test set,-7.07 kcal/mol
"Fc1ccc([C@@H]2CCNC[C@H]2COc2ccc3c(c2)OCO3)cc1 [Compound 18, Paroxetine]",IC50,[1],23.5 µM
"COC(=O)[C@H](c1ccccc1Cl)N1CCc2sccc2C1 [Compound 19, Clopidogrel]",IC50,[1],24.2 µM
same,Reported inhibition mechanism,[7],Substrate^69
"C#C[C@]1(O)CC[C@H]2[C@@H]3CCC4=Cc5oncc5C[C@]4(C)[C@H]3CC[C@@]21C [Compound 21, Danazol]",IC50,[1],45.3 µM
"Clc1ccccc1C(c1ccccc1)(c1ccccc1)n1ccnc1 [Compound 22, Clotrimazole]",IC50,[1],5.83 µM
"c1ccc2ccccc2c1 [Compound 27, Naphthalene]",Residual (ΔGbind^Obs—ΔGbind^Calc),[2],-0.55 kcal/mol
same,IC50,[5]; [9],700 µM
same,ΔGbind^Obs,[6]; training set,-4.73 kcal/mol
"Cc1cccc2ccccc12 [Compound 28, 1-Methylnaphthalene]",Residual (ΔGbind^Obs—ΔGbind^Calc),[2]; training set,-0.502 kcal/mol
same,ΔGbind^Obs,[3]; human,-5.86 kcal/mol
same,IC50,[5]; [9],110 µM
"Clc1cccc2ccccc12 [Compound 29, 1-Chloronaphthalene]","Residual (ΔGbind^Obs–ΔG bind ^Calc), error in prediction",[2],-0.932 kcal/mol
same,ΔGbind^Obs,[3]; human,-6.31 kcal/mol
same,IC50,[5]; [9],50 µM
"Cc1ccc2ccccc2c1 [Compound 30, 2-Methylnaphthalene]",Residual (ΔGbind^Obs—ΔGbind^Calc),[2],-0.789 kcal/mol
same,ΔGbind^Obs,[3]; human,-5.78 kcal/mol
same,IC50,[5],120 µM
"CCc1ccc2ccccc2c1 [Compound 31, 2-Ethylnaphthalene]","Residual (ΔGbind^Obs–ΔG bind ^Calc), error in prediction",[2]; test set,-0.789 kcal/mol
same,ΔGbind^Obs,[3]; human,-6.91 kcal/mol
same,IC50,[5]; [9],19 µM
"Fc1ccc2ccccc2c1 [Compound 32, 2-Fluoronaphthalene]",Residual (ΔGbind^Obs—ΔGbind^Calc),[2]; training set,-1.34 kcal/mol
same,IC50,[5]; [9],49 µM
same,ΔGbind^Obs,[6]; training set,-6.33 kcal/mol
"Cc1ccc(C)c2ccccc12 [Compound 36, 1,4-Dimethylnaphthalene]",Residual (ΔGbind^Obs—ΔGbind^Calc),[2]; training set,-1.77 kcal/mol
same,ΔGbind^Obs,[3]; human,-7.89 kcal/mol
same,IC50,[5]; [9],3.6 µM
"Cc1cccc2c(C)cccc12 [Compound 39, 1,5-Dimethylnaphthalene]","Residual (ΔGbind^Obs–ΔG bind ^Calc), error in prediction",[2],-0.478 kcal/mol
same,ΔGbind^Obs,[3]; human,-6.43 kcal/mol
same,IC50,[5],42 µM
"Cc1ccc2c(C)cccc2c1 [Compound 40, 1,6-Dimethylnaphthalene]","Residual (ΔGbind^Obs–ΔG bind ^Calc), error in prediction",[2]; test set,-0.454 kcal/mol
same,ΔGbind^Obs,[3]; human,-6.74 kcal/mol
same,IC50,[5]; [9],25 µM
"Cc1ccc2cccc(C)c2c1 [Compound 41, 1,7-Dimethylnaphthalene]","Residual (ΔGbind^Obs–ΔG bind ^Calc), error in prediction",[2]; test set,-1.46 kcal/mol
same,ΔGbind^Obs,[3]; human,-7.46 kcal/mol
same,IC50,[5]; [9],7.5 µM
"Cc1ccc2cc(C)ccc2c1 [Compound 42, 2,6-Dimethylnaphthalene]",Residual (ΔGbind^Obs—ΔGbind^Calc),[2],-0.454 kcal/mol
same,ΔGbind^Obs,[3]; human,-6.29 kcal/mol
same,IC50,[5],52 µM
"Cc1ccc2ccc(C)cc2c1 [Compound 43, 2,7-Dimethylnaphthalene]","Residual (ΔGbind^Obs–ΔG bind ^Calc), error in prediction",[2]; test set,0 kcal/mol
same,ΔGbind^Obs,[3]; human,-6.17 kcal/mol
same,IC50,[5]; [9],65 µM
"Cc1ccc2ccccc2n1 [Compound 44, Quinaldine]",IC50,[5]; [9],40 µM
"Cc1cnc2ccccc2c1 [Compound 45, 3-Methylquinoline]",IC50,[5]; [9],13 µM
"Cc1cc(C)c2ccccc2n1 [Compound 46, 2-4-Dimethylquinoline]",IC50,[5],2.4 µM
"Cc1cc2ccccc2cn1 [Compound 49, 3-Methylisoquinoline]",IC50,[5]; [9],21 µM
"CC1CCC(=O)O1 (stereo not drawn) [Compound 51, γ-Valerolactone]",Residual (ΔGbind^Obs—ΔGbind^Calc),[2],0.86 kcal/mol
same,ΔGbind^Obs,[3],-2.92 kcal/mol
same,IC50,[5]; [9],15000 µM
"CCC1CCC(=O)O1 (stereo not drawn) [Compound 52, γ-Caprolactone]",Residual (ΔGbind^Obs—ΔGbind^Calc),[2],0.956 kcal/mol
same,ΔGbind^Obs,[3]; human,-3.15 kcal/mol
same,IC50,[5],9900 µM
"O=C1Cc2ccccc2O1 [Compound 60, 2-Coumarone]",Residual (ΔGbind^Obs—ΔGbind^Calc),[2]; training set,-0.263 kcal/mol
same,ΔGbind^Obs,[3],-5.33 kcal/mol
same,IC50,[5]; [9],260 µM
"c1ccc2c(c1)CCO2 [Compound 62, 2,3-Dihydrobenzofuran]",Residual (ΔGbind^Obs—ΔGbind^Calc),[2]; training set,-0.096 kcal/mol
same,IC50,[5]; [9],1200 µM
same,ΔGbind^Obs,[6]; training set,-4.42 kcal/mol
"c1ccc2c(c1)CCC2 [Compound 63, Indan]",ΔGbind^Obs,[3]; human,-4.88 kcal/mol
same,IC50,[5],550 µM
"O=c1[nH]c2ccccc2o1 [Compound 64, 2-Benzoxazolinone]",Residual (ΔGbind^Obs—ΔGbind^Calc),[2]; training set,0.19 kcal/mol
same,ΔGbind^Obs,[3]; human,-5.11 kcal/mol
same,IC50,[5]; [9],370 µM
"c1ccc(-c2ccccc2)cc1 [Compound 65, Biphenyl]",Residual (ΔGbind^Obs—ΔGbind^Calc),[2],-0.12 kcal/mol
same,ΔGbind^Obs,[3]; human,-5.62 kcal/mol
same,IC50,[5],160 µM
"Clc1ccccc1-c1ccccc1 [Compound 66, 2-Chlorobiphenyl]","Residual (ΔGbind^Obs–ΔG bind ^Calc), error in prediction",[2]; test set,0.669 kcal/mol
same,ΔGbind^Obs,[3]; human,-5.4 kcal/mol
same,IC50,[5]; [9],230 µM
"Clc1ccc(-c2ccccc2)cc1 [Compound 67, 4-Chlorobiphenyl]",Residual (ΔGbind^Obs—ΔGbind^Calc),[2],0.024 kcal/mol
same,ΔGbind^Obs,[3]; human,-6.33 kcal/mol
same,IC50,[5]; [9],49 µM
"CCCCC1CCCCC1 [Compound 68, Butylcyclohexane]",Residual (ΔGbind^Obs—ΔGbind^Calc),[2]; training set,0.526 kcal/mol
same,IC50,[5]; [9],55 µM
same,ΔGbind^Obs,[6]; training set,-6.26 kcal/mol
"CCCCc1ccccc1 [Compound 69, Butylbenzene]","Residual (ΔGbind^Obs–ΔG bind ^Calc), error in prediction",[2]; test set,1.43 kcal/mol
same,ΔGbind^Obs,[3]; human,-3.75 kcal/mol
same,IC50,[5]; [9],3700 µM
"O=C1CCC(c2ccccc2)O1 (stereo not drawn) [Compound 70, γ-Phenyl-γ-butyrolactone]",Residual (ΔGbind^Obs—ΔGbind^Calc),[2]; training set,1.36 kcal/mol
same,ΔGbind^Obs,[3],-4.04 kcal/mol
same,IC50,[5]; [9],2300 µM
"COC1=CC(=O)OC1 [Compound 71, 4-Methoxyfuran-2-(5H)-one]","Residual (ΔGbind^Obs–ΔG bind ^Calc), error in prediction",[2]; test set,1.34 kcal/mol
same,IC50,[5],40000 µM
same,ΔGbind^Obs,[6]; test set,-2.32 kcal/mol
"Cc1cc(C)oc(=O)c1 [Compound 72, 4,6-Dimethyl-α-pyron]",Residual (ΔGbind^Obs—ΔGbind^Calc),[2],1.05 kcal/mol
same,IC50,[5],4500 µM
same,ΔGbind^Obs,[6]; training set,-3.63 kcal/mol
"CN1C(=O)CC[C@H]1c1cccnc1 [Compound 73, Cotinine]",Residual (ΔGbind^Obs—ΔGbind^Calc),[2]; training set,1.84 kcal/mol
same,IC50,[5]; [9],5400 µM
same,ΔGbind^Obs,[6]; training set,-3.51 kcal/mol
